Assay results taken from PubChem BioAssay (NCI).
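GI50 = concentration required for 50% inhibition of growth. Definition used: TGI = concentration required for complete inhibition of growth.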

Tests used:
Assay in all cases: NCI anticancer screen, dose series, 384-well format
[1] = test system: SN12C renal
[2] = test system: SK-MEL-5 melanoma
[3] = test system: U251 glioblastoma
[4] = test system: SNB-19 CNS
[5] = test system: HT29 colon
[6] = test system: SK-MEL-28 melanoma
[7] = test system: MALME-3M melanoma
[8] = test system: NCI-H522 lung
[9] = test system: OVCAR-5 ovarian
[10] = test system: 786-0 renal
[11] = test system: RPMI-8226 leukemia
[12] = test system: HCC-2998 colon
[13] = test system: PC-3 prostate
[14] = test system: A498 renal
[15] = test system: SR leukemia
[16] = test system: HOP-92 NSCLC
[17] = test system: SK-MEL-2 melanoma
[18] = test system: SNB-75 CNS
[19] = test system: UACC-257 melanoma
[20] = test system: UO-31 renal
[21] = test system: LOX IMVI melanoma
[22] = test system: DU-145 prostate
[23] = test system: NCI-H23 lung
[24] = test system: OVCAR-4 ovarian
[25] = test system: HL-60(TB) leukemia
[26] = test system: SF-539 CNS
[27] = test system: HCT-116 colon
[28] = test system: SF-295 CNS
[29] = test system: OVCAR-3 ovarian
[30] = test system: CCRF-CEM leukemia
[31] = test system: COLO 205 colon
[32] = test system: NCI-H226 lung
[33] = test system: TK-10 renal
[34] = test system: MDA-MB-468 breast
[35] = test system: MDA-MB-231 breast
[36] = test system: NCI-H460 NSCLC
[37] = test system: BT-549 breast
[38] = test system: SK-OV-3 ovarian
[39] = test system: HOP-62 NSCLC
[40] = test system: CAKI-1 renal
[41] = test system: UACC-62 melanoma
[42] = test system: MCF7 breast
[43] = test system: T-47D breast
[44] = test system: NCI-H322M lung
[45] = test system: MOLT-4 leukemia
[46] = test system: EKVX NSCLC
[47] = test system: ACHN renal
[48] = test system: HCT-15 colon
[49] = test system: A549 NSCLC
[50] = test system: K-562 leukemia
[51] = test system: SW-620 colon
[52] = test system: NCI/ADR-RES ovarian
[53] = test system: RXF 393 renal
[54] = test system: IGROV1 ovarian
[55] = test system: MDA-MB-435 melanoma
[56] = test system: KM12 colon
[57] = test system: HS 578T breast
[58] = test system: SF-268 CNS
[59] = test system: M14 melanoma

O=C(Nc1ccccc1/C=C/c1n[nH]c2ccccc12)c1ccccc1
GI50 [1]: 1530 nM | TGI [1]: 2900 nM | GI50 [2]: 1560 nM | TGI [2]: 6100 nM | GI50 [3]: 1550 nM | TGI [3]: 2910 nM | GI50 [4]: 1980 nM | TGI [4]: 4380 nM | GI50 [5]: 1490 nM | TGI [5]: 2850 nM | GI50 [6]: 2370 nM | TGI [6]: 8160 nM | GI50 [7]: 1290 nM | TGI [7]: 2680 nM | GI50 [8]: 2360 nM | TGI [8]: 8590 nM | GI50 [9]: 1400 nM | TGI [9]: 3330 nM | GI50 [10]: 1820 nM | TGI [10]: 3310 nM | GI50 [11]: 1560 nM | TGI [11]: 2970 nM | GI50 [12]: 1280 nM | TGI [12]: 2580 nM | GI50 [13]: 1450 nM | TGI [13]: 2790 nM | GI50 [14]: 1840 nM | TGI [14]: 3310 nM | GI50 [15]: 1230 nM | TGI [15]: 2510 nM | GI50 [16]: 1520 nM | TGI [16]: 5050 nM | GI50 [17]: 3880 nM | TGI [17]: 5810 nM | GI50 [18]: 2160 nM | TGI [18]: 4810 nM | GI50 [19]: 1940 nM | TGI [19]: 4300 nM | GI50 [20]: 10400 nM | TGI [20]: 22300 nM | GI50 [21]: 1900 nM | TGI [21]: 3450 nM | GI50 [22]: 1470 nM | TGI [22]: 3040 nM | GI50 [23]: 1160 nM | TGI [23]: 12400 nM | GI50 [24]: 4220 nM | TGI [24]: 17200 nM | GI50 [25]: 538 nM | TGI [25]: 1880 nM | GI50 [26]: 2040 nM | TGI [26]: 4760 nM | GI50 [27]: 1490 nM | TGI [27]: 2990 nM | GI50 [28]: 1630 nM | TGI [28]: 3000 nM | GI50 [29]: 1390 nM | TGI [29]: 2930 nM | GI50 [30]: 1580 nM | TGI [30]: 2960 nM | GI50 [31]: 1300 nM | TGI [31]: 2590 nM | GI50 [32]: 1480 nM | TGI [32]: 8440 nM | GI50 [33]: 1500 nM | TGI [33]: 3140 nM | GI50 [34]: 1640 nM | TGI [34]: 3650 nM | GI50 [35]: 1480 nM | TGI [35]: 2990 nM | GI50 [36]: 1480 nM | TGI [36]: 2900 nM | GI50 [37]: 1950 nM | TGI [37]: 3460 nM | GI50 [38]: 2870 nM | TGI [38]: 11600 nM | GI50 [39]: 1550 nM | TGI [39]: 2950 nM | GI50 [40]: 2460 nM | TGI [40]: 9910 nM | GI50 [41]: 1890 nM | TGI [41]: 3940 nM | GI50 [42]: 514 nM | TGI [42]: 11400 nM | GI50 [43]: 1900 nM | TGI [43]: 4050 nM | GI50 [44]: 1840 nM | TGI [44]: 3970 nM | GI50 [45]: 1650 nM | TGI [45]: 3350 nM | GI50 [46]: 1430 nM | TGI [46]: 3940 nM | GI50 [47]: 2630 nM | TGI [47]: 8820 nM | GI50 [48]: 1460 nM | TGI [48]: 2820 nM | GI50 [49]: 1740 nM | TGI [49]: 3390 nM | GI50 [50]: 1370 nM | TGI [50]: 2770 nM | GI50 [51]: 1870 nM | TGI [51]: 5300 nM | GI50 [52]: 1990 nM | TGI [52]: 4430 nM | GI50 [53]: 2930 nM | TGI [53]: 8110 nM | GI50 [54]: 5770 nM | TGI [54]: 19600 nM | GI50 [55]: 1530 nM | TGI [55]: 4460 nM | GI50 [56]: 40.8 nM | TGI [56]: 1010 nM | GI50 [57]: 1650 nM | TGI [57]: 3110 nM | GI50 [58]: 1710 nM | TGI [58]: 3260 nM | GI50 [59]: 3420 nM | TGI [59]: 14300 nM
